Where two headings read alike, the source gives them in different places.
Experiments:
HCT116 = assay: Anti-proliferative activity assay, HCT116; format: cell-based, human; conditions: HCT116 colorectal cancer cells, 4 days, WST-8, read-out: Anti-proliferative activity assay (IC50 in nM) HCT116 (CRC)
Protocol: (§1) Antiproliferative activity assay was carried out as follows. A single suspension of tumor cells was inoculated to the serially diluted 96-well microtestplate. Then the testplate was incubated in the 5% CO2 ambience at 37° C. for 4 days (2-3×10^3 cells/well). The degree of cell growth in a monolayer was measured by using WST-8 (Dojindo, Japan). IC50 values of drugs against tumor cells were calculated as the concentration of drug yielding 50% OD of the control growth. The IC50 value measures the drug concentration for 50% of the growth of tumor cells in vitro as compared to the control.
(§2) The anti-tumor activities of hexacyclic compounds of the formula [1A] and [1B] against in vitro growth of human tumor cell lines, HCT116 and DLD-1 of colorectal cancer (CRC) and QG56 and NCI-H460 of non small cell lung cancer (NSCLC) are summarized in Table 1. These cell lines are commercially available via the American Type Culture Collection (ATTC).

NCI-H460 = assay: Anti-proliferative activity assay, NCI-H460; format: cell-based, human; conditions: NCI-H460 non small cell lung cancer cells, 4 days, WST-8, read-out: Anti-proliferative activity assay (IC50 in nM) NCI-H460 (NSCLC)
Protocol: as §1, §2

QG56 = assay: Anti-proliferative activity assay, QG56; format: cell-based, human; conditions: QG56 non small cell lung cancer cells, 4 days, WST-8, read-out: Anti-proliferative activity assay (IC50 in nM) QG56 (NSCLC)
Protocol: as §1, §2

DLD-1 = assay: Anti-proliferative activity assay, DLD-1; format: cell-based, human; conditions: DLD-1 colorectal cancer cells, 4 days, WST-8, read-out: Anti-proliferative activity assay (IC50 in nM) DLD-1 (CRC)
Protocol: as §1, §2

[1] = converted to the inactive carboxylate form; cited from earlier work

Structure (SMILES)	IC50 (HCT116) [nM]	IC50 (NCI-H460) [nM]	IC50 (QG56) [nM]	IC50 (DLD-1) [nM]	IC50 (HCT116; Homo sapiens, HCT-116, 96 h) [nM]	IC50 (NCI-H460; Homo sapiens, 96 h) [nM]	IC50 (QG56; Homo sapiens, QG-56, 96 h) [nM]	IC50 (DLD-1; Homo sapiens, 96 h) [nM]	half-life in plasma [1]
CCc1c2c(nc3ccc(O)cc13)-c1cc3c(c(=O)n1C2)COC(=O)[C@]3(O)CC [SN-38, 7-ethyl-10-hydroxycamptothecin, reference compound]	6.9	21	27	53	–	–	–	–	–
CC[C@@]1(O)C(=O)OCc2c1cc1n(c2=O)Cc2c-1nc1cccc3c1c2N(CCc1ccccc1)C(=O)N3 [Compound A, (9S)-9-ethyl-9-hydroxy-1-phenethyl-1H,12H-pyrano[3″,4″:6′,7′]indolizino[1′,2′:6,5]pyrido[4,3,2-de]quinazoline-2,10,13(3H,9H,15H)-trione]	–	–	–	–	1.9	6.5	7.1	11	–
CC[C@@]1(O)C(=O)OCc2c1cc1n(c2=O)Cc2c-1nc1cccc3c1c2NC(=S)N3CCC(C)C [Compound D, (9S)-9-ethyl-9-hydroxy-1-(3-methylbutyl)-2(3H)-thioxo-1H,12H-pyrano[3″,4″:6′,7′]indolizino[1′,2′:6,5]pyrido[4,3,2-de]quinazoline-10,13(9H,15H)-dione]	5.1	10	17	15	–	–	–	–	–
CC[C@@]1(O)C(=O)OCc2c1cc1n(c2=O)Cc2c-1nc1cccc3c1c2N(CCC(C)C)C(CO)=N3 [Compound F, (9S)-9-ethyl-9-hydroxy-2-hydroxymethyl-1-(3-methylbutyl)-1H,12H-pyrano[3″,4″:6′,7′]indolizino[1′,2′:6,5]pyrido[4,3,2-de]quinazoline-10,13(9H,15H)-dione]	–	–	–	–	3.1	4.8	7.4	12	–
CC[C@@]1(O)C(=O)OCc2c1cc1n(c2=O)Cc2cc3ccccc3nc2-1 [camptothecin, 4(S)-ethyl-4-hydroxy-1H-pyrano[3′,4′:6,7]indolizino[1,2-b]quinoline-3,14(4H,12H)-dione]	–	–	–	–	–	–	–	–	less than 30 min
CCCCCN1C(C)=Nc2cccc3nc4c(c1c23)Cn1c-4cc2c(c1=O)COC(=O)[C@]2(O)CC [Compound E, (9S)-9-ethyl-9-hydroxy-2-methyl-1-pentyl-1H,12H-pyrano[3″,4″:6′,7′]indolizino[1′,2′:6,5]pyrido[4,3,2-de]quinazoline-10,13(9H,15H)-dione]	–	–	–	–	4.5	7.9	15	15	–
CCCCCN1C=Nc2cccc3nc4c(c1c23)Cn1c-4cc2c(c1=O)COC(=O)[C@]2(O)CC [Compound B, (9S)-9-ethyl-9-hydroxy-1-pentyl-1H,12H-pyrano[3″,4″:6′,7′]indolizino[1′,2′:6,5]pyrido[4,3,2-de]quinazoline-10,13(9H,15H)-dione]	–	–	–	–	6.1	7	7.7	23	–

From patent US6825194B2, “Hexacyclic compounds” (Chugai Seiyaku Kabushiki Kaisha, priority 2001, dated 2004)
